{
  "source": "patent US10906876B2",
  "about": "“Tetrahydroisoquinolines as selective NADPH oxidase 2 inhibitors” (University of Pittsburgh—Of the Commonwealth System of …, priority 2013, dated 2021)",
  "key": {"[1]": {"target": "T1, Nox2 (Homo sapiens, UniProt P04839)", "T1 construct": "expressed in transfected cells", "T1 sequence (P04839 2-570 limits assumed)": "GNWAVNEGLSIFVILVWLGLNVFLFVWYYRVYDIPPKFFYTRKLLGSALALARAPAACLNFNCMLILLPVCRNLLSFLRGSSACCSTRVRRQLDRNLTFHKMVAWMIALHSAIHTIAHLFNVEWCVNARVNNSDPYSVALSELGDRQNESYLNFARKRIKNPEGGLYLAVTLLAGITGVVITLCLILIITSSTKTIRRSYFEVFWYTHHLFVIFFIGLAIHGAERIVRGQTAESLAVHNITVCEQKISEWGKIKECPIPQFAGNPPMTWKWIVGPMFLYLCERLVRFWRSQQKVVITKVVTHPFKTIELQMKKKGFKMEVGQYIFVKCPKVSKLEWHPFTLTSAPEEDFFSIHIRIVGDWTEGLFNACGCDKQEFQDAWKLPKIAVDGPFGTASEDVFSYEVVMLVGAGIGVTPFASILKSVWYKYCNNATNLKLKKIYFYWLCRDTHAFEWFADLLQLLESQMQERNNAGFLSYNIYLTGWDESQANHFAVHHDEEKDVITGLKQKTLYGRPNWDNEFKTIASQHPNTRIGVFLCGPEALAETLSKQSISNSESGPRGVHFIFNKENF", "experiment": "ROS (H2O2) generation in whole COS-Nox2 cells, Amplex Red assay", "type": "cell-based", "conditions": "for Nox2 inhibitory activity: Table 2; for IC50: whole COS-Nox2 cells stimulated with 5 μM PMA, Amplex Red", "excerpt": "(§1) All cell culture reagents were obtained from Invitrogen, unless indicated. COS-22 (COS-7 cells stably expressing human p22^phox) and COS-Nox2 (a.k.a. COS-phox) cells (COS-7 cells stably expressing human p22^phox, Nox2, p47^phox and p67^phox) were kindly provided by Dr. Mary C. Dinauer (Indiana University, School of Medicine) (Price et al., Blood, 2002, 99:2653-2661). COS-22 cells were maintained in Dulbecco's Modified Eagle Medium (DMEM) with 4.5 g/L glucose, L-glutamine and sodium pyruvate containing 10% heat-inactivated fetal bovine serum (FBS), 100 units/ml penicillin and 100 μg/ml streptomycin (complete media) supplemented with 1.8 mg/ml G418 (Calbiochem/EMB Bioscience, Gibbstown, N.J.). COS-Nox2 cells were maintained in complete media supplemented with 1.8 mg/mL G418, 1 μg/mL puromycin (Sigma, St Louis, Mo.) and 0.2 mg/mL hygromycin B (Invitrogen, Carlsbad, Calif.). HEK-Nox5 cells were kindly provided by Dr. David Fulton (Georgia Health Sciences University) and maintained in complete media.\nH2O2 production was quantified in intact COS-Nox4 cells by Amplex® Red. Briefly, COS-Nox4 cells (5×10^4 cells/ml) were re-plated into 384-well plate in assay buffer (25 mM Hepes, pH 7.4, containing 0.12 M NaCl, 3 mM KCl, 1 mM MgCl2). The cells were incubated in the presence or absence of drugs at 37° C. in assay buffer supplemented with 0.1 mM Amplex® Red, and 0.32 U/ml of horse radish peroxidase (HRP) for 15 min. Fluorescence measurements were made using a Biotek Synergy 4 Hybrid Multi-Mode Microplate Reader with a 530/25-excitation and a 590/35-emission filter. The reaction was monitored at 37° C. for 1 h. A standard curve of known H2O2 concentrations was included on each plate. Nox4 activity was obtained by calculating the rate of H2O2 production as RFU/min and then subtracting the equivalent value given by non-transfected COS-22 cells. Similarly, H2O2 production by Nox2 cells was also measured by Amplex® Red as described above but in the presence of 150 U/mL of SOD and the reaction was initiated by addition of 5 μM PMA. The rate of H2O2 production in this case was calculated as RFU/min after the subtraction of the equivalent value given by non-stimulated cells. Data are expressed as % of vehicle control.\n(§2) All data are expressed as means±SEM. IC50 values were determined using the GraphPad Prism software (GraphPad Software, San Diego, Calif.) for non-linear regression three-parameters, with constrain values of 100 and 0 for top and bottom, respectively, and assumes a Hill slope of 1."}, "[2]": {"target": "T2, Nox5 (Homo sapiens, UniProt Q96PH1)", "T2 construct": "expressed in transfected cells; host or cells: HEK-Nox5 cells (gift of D. Fulton)", "T2 sequence (Q96PH1 19-737 isoform Q96PH1-3 limits assumed)": "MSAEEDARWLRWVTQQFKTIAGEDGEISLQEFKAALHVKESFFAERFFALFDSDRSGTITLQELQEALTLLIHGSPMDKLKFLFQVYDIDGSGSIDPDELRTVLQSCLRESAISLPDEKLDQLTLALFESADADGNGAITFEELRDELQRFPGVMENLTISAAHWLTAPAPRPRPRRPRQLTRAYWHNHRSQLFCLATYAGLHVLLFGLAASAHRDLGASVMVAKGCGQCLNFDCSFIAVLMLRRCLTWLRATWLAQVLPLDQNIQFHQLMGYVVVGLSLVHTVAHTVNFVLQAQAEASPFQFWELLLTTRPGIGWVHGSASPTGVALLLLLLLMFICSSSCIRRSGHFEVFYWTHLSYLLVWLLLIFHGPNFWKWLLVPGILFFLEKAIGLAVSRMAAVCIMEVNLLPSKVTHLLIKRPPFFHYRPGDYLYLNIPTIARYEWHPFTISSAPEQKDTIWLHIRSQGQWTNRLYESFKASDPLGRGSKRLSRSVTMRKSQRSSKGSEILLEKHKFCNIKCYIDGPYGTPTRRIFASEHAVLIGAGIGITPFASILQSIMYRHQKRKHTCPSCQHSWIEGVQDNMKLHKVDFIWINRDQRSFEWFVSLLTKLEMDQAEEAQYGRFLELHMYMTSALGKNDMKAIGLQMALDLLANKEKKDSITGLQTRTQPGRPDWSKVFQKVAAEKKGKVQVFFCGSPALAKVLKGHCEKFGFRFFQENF", "experiment": "Nox5 activity in HEK-Nox5 cells, L-012 assay", "type": "cell-based", "conditions": "for IC50: HEK-Nox5 cells stimulated with 1 μM PMA and 0.5 ionomycin, L-012, read-out: IC50 of ROS generation, Nox5 (L-012 assay)", "excerpt": "as §1\nCOS-Nox2, COS-Nox1/NOXO1/NOXA1, HEK-Nox5 and COS-22 cells were re-plated in OPTIMEM into 384-well white micro-plates (Greiner-Bio One GmbH, Germany) at a density of 2.5×10^3 cells/well for COS-Nox2 and 5×10^4 cells/well for all others. The cells were incubated at 37° C. in PBS containing 400 μm L-012 for 10 min. […] Since Nox1 was constitutively active, Nox1-derived O2^•− was assessed by comparison to non-transfected cells (Cos22). Luminescence was quantified over time using a Biotek Synergy 4 Hybrid Multi-Mode Microplate Reader. The specificity of L-012 for O2^•− was confirmed by the addition of SOD (150 U/mL).\nas §2"}},
  "data": [
    {"compound": "C=C(C)CC1C2c3c(Br)cccc3C(CC2(C)C)N1S(C)(=O)=O", "note": "(racemic) [Compound 14a, (±)-(1S,4R,9S)-5-Bromo-3,3-dimethyl-9-(2-methylallyl)-10-(methylsulfonyl)-1,2,3,4-tetrahydro-1,4-(epiminomethano)naphthalene]", "values": [
      {"measurement": "Nox2 inhibitory activity", "setting": "[1]", "result": "completely abolished activity"},
      {"measurement": "IC50", "setting": "[1]", "result": "27 ± 4.7", "unit": "µM"},
      {"measurement": "IC50", "setting": "[2]", "result": "> 100", "unit": "µM"}
    ]},
    {"compound": "C=C(C)CC1C2c3c(Br)cccc3C(CC2(C)C)N1S(=O)(=O)c1ccc(F)cc1", "note": "(racemic) [Compound 14b, (±)-(1S,4R,9S)-5-Bromo-10-((4-fluorophenyl)sulfonyl)-3,3-dimethyl-9-(2-methylallyl)-1,2,3,4-tetrahydro-1,4-(epiminomethano)naphthalene]", "values": [
      {"measurement": "Nox2 inhibitory activity", "setting": "[1]", "result": "completely abolished activity"},
      {"measurement": "IC50", "setting": "[1]", "result": "> 100", "unit": "µM"},
      {"measurement": "IC50", "setting": "[2]", "result": "> 100", "unit": "µM"}
    ]},
    {"compound": "C=C(C)C[C@@H]1N[C@H]2CC(C)(C)[C@@H]1c1c(Br)ccc(Br)c12", "note": "[Compound 9]", "values": [
      {"measurement": "IC50", "setting": "[1]", "result": "25 ± 10", "unit": "µM"},
      {"measurement": "IC50", "setting": "[2]", "result": 36, "unit": "µM"},
      {"measurement": "Nox5 inhibitory activity", "setting": "[2]; Table 2", "result": "active"}
    ]}
  ]
}
